Where “and” joins values, the source holds several entries; their conditions need not be identical. Identical values can stand only once.
Assays:
human Erα = target: T1, human Erα (Homo sapiens, UniProt P03372); assay: ERα transactivation (CHO, ERE-LUC); assay type: cell-based
T1 construct: host or cells: CHO, transient co-transfection
Protocol: The CHO cell line was selected to express estrogen α and β protein and the gene expression under the tested compounds stimulation was analyzed. The co-transfection with vector encoding the human full-length steroid receptors hERα and hERβ and reporter vector ERE/LUC was performed. Transient and stable transfectants with protein overexpression were induced by tested compounds (17β-estradiol or EC313) or the mixture: estradiol and appropriate range of concentration of EC313. Agonist and antagonist properties of EC313 toward tested receptor ERα and ERβ were analyzed using luminescence detection.
Plasmid included vectors coding sequences for the receptor as well as the reporter gene. […]
The ability of EC313 to agonize and/or antagonize ER receptor expression was analyzed in the following test system: co-transfected CHO cells were stimulated with estradiol (0.009 nM - 1200 nM) and EC313 (0.009 nM - 1200 nM) for detection agonistic activity. The antagonistic activity was assessed during the competitive interaction between EC313 (0.009 nM - 1200nM) and an appropriate concentration of estradiol (see Table 3 ). […] After incubating the cells for 24h with the tested compounds, the luminescent signal generated by the luciferase activity was detected.

[1] = target: T2, ligand binding domain of the human androgen receptor (AR-LBD) (Homo sapiens, UniProt P10275); assay: Competitive binding, AR ligand binding domain
T2 construct: purchased Thermo Fisher Scientific
Protocol: (§1) The study aimed to characterize the competitive binding profile of EC313 to relevant human nuclear receptors. For the assays, commercially available ‘ligand binding domain’ proteins were purchased (Thermo Fisher Scientific). In addition, the full-length receptor proteins were expressed in transfected HI insect cells using the `Bac-to-bac Baculovirus expression system´ (Thermo Fisher Scientific). Cellular lysates served as receptor preparation. Receptor protein preparations were incubated with tritiated reference ligands and EC313 or reference steroids at concentrations between 0.1 and 1000 nM for 2h at 4°C to reach equilibrium. Subsequently, unbound steroids were adsorbed to dextran-coated charcoal (Sigma Aldrich), separated by filtration, and the remaining radioactivity was quantified in a ß-counter (Perkin Elmer). Displacement curves were fitted using the GraphPad Prism 7 free version to obtain EC50 values. Relative binding affinity (RBA [%], (C50ref/C50test)*100) and the competition coefficient (C50test/C50ref) were used to describe the relative binding potency of EC313 compared to the reference ligands.

pregnant guinea pigs = assay: Abortive activity in pregnant guinea pigs; assay type: in vivo, guinea pig; conditions: 30 mg/animal/day s.c., pregnancy days 43 and 44
Protocol: In female animals, the second day of vaginal opening in the mating cycle was defined as day 1 of pregnancy (pregnancy length approx. 62 days). They were treated on days 43 and 44 by subcutaneous (s.c.) injection of the proprietary compounds EC312, EC313, EC323, and EC328 as well as UPA. All tested compounds were synthesized in Evestra Inc. The dose levels administered were 3, 10, and 30 mg/animal/day. The external genital organs were inspected for the presence of vaginal bleeding and fetal membranes (twice daily). The presence of expelled fetuses and placentae in the cages was also recorded at each inspection.
The animals were sacrificed on day 50 using CO2. Both uterine horns were dissected and their contents were inspected. Fresh corpora lutea (CL) were evidence of a recent ovulation.

[2] = system: human progesterone receptor (full length, PRA); assay: Competitive binding, full length human progesterone receptor; conditions: compared to progesterone
Protocol: as §1

GR = target: T3, GR (Homo sapiens, UniProt P04150); assay: Competitive binding, full length human glucocorticoid receptor; parameters: made in house; host or cells: HI (Hi5) insect cells, baculovirus; cellular lysate
T3 sequence (P04150 1-777): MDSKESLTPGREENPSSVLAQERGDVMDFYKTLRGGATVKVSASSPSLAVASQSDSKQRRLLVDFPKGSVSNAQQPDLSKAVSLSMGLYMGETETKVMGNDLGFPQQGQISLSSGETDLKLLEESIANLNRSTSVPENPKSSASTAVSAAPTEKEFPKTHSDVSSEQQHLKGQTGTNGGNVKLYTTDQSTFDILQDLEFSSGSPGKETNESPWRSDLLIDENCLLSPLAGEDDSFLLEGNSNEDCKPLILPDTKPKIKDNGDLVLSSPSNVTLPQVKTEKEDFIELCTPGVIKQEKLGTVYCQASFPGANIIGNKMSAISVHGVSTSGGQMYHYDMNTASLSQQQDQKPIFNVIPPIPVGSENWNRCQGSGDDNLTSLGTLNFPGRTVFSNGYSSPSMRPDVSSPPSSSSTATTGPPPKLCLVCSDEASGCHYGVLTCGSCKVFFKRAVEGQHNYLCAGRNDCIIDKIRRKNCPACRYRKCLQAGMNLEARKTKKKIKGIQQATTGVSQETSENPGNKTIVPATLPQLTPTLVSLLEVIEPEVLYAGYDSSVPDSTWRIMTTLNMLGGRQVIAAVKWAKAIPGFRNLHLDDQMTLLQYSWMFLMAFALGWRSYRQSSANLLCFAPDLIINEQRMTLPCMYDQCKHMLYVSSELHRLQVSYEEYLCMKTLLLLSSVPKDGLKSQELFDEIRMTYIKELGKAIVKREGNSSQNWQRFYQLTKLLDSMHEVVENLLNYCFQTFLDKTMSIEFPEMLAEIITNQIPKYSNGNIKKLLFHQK
Protocol: as §1

human PRA = human PRA (Homo sapiens, UniProt P06401); assay: PR-A transactivation (CHO, MMTV-LUC); assay type: cell-based
Chain of human PRA (P06401 165-933): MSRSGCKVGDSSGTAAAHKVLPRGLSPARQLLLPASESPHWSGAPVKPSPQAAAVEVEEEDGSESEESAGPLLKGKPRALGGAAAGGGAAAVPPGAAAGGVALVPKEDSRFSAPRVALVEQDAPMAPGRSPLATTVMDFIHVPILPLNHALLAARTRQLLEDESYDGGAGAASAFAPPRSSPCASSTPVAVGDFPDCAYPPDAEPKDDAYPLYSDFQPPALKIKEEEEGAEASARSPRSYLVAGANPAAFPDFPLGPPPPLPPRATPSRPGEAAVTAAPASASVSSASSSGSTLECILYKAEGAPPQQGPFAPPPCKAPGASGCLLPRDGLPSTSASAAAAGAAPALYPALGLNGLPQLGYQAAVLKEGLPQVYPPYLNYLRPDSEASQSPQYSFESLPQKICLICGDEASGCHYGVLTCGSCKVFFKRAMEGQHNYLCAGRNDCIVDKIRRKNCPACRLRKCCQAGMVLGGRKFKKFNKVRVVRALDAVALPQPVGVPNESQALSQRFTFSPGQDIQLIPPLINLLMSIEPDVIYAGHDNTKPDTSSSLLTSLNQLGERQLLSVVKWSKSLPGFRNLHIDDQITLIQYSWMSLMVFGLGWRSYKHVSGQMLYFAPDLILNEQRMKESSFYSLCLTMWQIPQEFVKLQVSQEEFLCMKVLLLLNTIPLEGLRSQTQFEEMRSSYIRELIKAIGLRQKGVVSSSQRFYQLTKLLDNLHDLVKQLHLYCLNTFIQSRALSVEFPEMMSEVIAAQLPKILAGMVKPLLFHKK
Protocol: Due to the existence of two isoforms of the PR receptor (PRA and PRB) and the fact that both of them control expression of a largely different set of genes, separate assays for each of them were carried out.
In order to develop the transfection assay, plasmids were generated and isolated. Plasmids included vectors with the coding sequences for the receptor as well as the reporter gene, respectively. The vector pcDNA3.1 coding sequence for the full length of human PRA and PRB (cDNA ORF clone in pcDNA3.1+/C-(K)-DYK) was used as an expression vector for PR isoform A and B, respectively. Vector pGL4.36 coding for the progesterone responsive element MMTV and firefly luciferase reporter vector [luc2P/Hygro] were used as reporter systems (pGL4.36-MMTV/LUC).
A sufficient transactivation signal was achieved using stable transfection for the human PRA and PRB receptors and transient transfection for the MMTV-luciferase reporter gene. Therefore, the first stable transfection with the receptor of interest was performed. Thus, 0.5x10^6 CHO cells per well were plated into 6-well plates in transfection medium w/o antibiotics (RPMI phenol-free, 10% FBS,2mM L-glutamine). When the cells reached 80% confluency, transfection with receptor using FuGENE 6 in Opti-MEM medium was accomplished according to the manufacturer’s instruction. After 48h of transfection, stably transfected cells were cultured in a growth medium containing an antibiotic (G418 500 µg/mL). Only cells with the resistance gene (resistance to G418), which had been transfected together with the DNA for PRA and PRB were able to grow in this medium. Consequently, growing cell clones were selected for further steps as stable transfectants. The CHO cells stably transfected with the expression of PRA or PRB were transiently transfected with promoter MMTV/LUC vectors. […]
After 24h incubation of cells with tested compounds, luciferase activity was measured using a VICTOR™ X Multilabel Plate Reader -Perkin Elmer.

T2 sequence (P10275 669-900 limits assumed): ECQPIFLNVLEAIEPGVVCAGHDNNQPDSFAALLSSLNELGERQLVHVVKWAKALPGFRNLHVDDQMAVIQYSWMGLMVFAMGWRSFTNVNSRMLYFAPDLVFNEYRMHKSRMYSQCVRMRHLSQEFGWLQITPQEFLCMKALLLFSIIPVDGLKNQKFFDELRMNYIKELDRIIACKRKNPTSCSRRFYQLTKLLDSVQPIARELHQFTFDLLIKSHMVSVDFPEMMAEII
T1 sequence (P03372 whole entry): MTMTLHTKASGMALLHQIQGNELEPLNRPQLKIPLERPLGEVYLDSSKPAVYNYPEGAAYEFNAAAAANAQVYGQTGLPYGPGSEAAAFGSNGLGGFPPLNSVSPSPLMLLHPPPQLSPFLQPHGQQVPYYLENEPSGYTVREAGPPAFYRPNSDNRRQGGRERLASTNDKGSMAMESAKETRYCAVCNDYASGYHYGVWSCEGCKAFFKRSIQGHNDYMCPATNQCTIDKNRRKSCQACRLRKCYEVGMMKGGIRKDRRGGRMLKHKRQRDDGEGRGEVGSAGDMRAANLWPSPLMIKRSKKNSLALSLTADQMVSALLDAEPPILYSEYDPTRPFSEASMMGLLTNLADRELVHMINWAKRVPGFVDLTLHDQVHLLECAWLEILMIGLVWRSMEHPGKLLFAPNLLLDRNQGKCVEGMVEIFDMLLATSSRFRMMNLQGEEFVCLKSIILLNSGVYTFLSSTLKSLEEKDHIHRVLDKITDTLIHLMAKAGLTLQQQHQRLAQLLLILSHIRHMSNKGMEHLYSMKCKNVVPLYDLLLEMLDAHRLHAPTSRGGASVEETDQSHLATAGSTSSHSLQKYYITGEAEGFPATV

`C[C@]12C[C@H](c3ccc(-c4ccoc4)cc3)C3=C4CCC(=O)C=C4CC[C@H]3[C@@H]1CC[C@]21OCCC1=C(F)F` [EC313] was tested, and the “agonistic or antagonistic activity” value (human Erα) was “no agonistic or antagonistic activity”, the IC50 ([1]; AR-LBD) was 1060 nM and the “AR-LBD Comp. Coefficient” value ([1]; EC313 relative to Metribolone) was 17. For the same molecule, the “expulsion of uterine contents / fetal expulsions (animals)” value (pregnant guinea pigs) was “No fetal expulsions”, the competition coefficient [2] was 3.4 and the “Comp. Coefficient” value (GR; EC313 relative to Dexamethasone) was 12 and 11.8. For the same molecule, the IC50 (GR; tritiated ligand displacement) was 226 ± 9 nM, the IC50 (human PRA; Promegestone 35 nM, read-out: IC50, antagonism of Promegestone-induced reporter gene expression) was 7.96 nM and 8 nM and the EC50 (human PRA; weak agonistic activity, in the range of the maximum concentration tested) was about 1000 nM.
